# Experimental data reported in patent US9902761B2, “Polypeptides, nucleic acids and uses thereof” (AGENCY FOR SCIENCE, TECHNOLOGY AND RESEARCH, priority 2013, dated 2018).
# How the values were obtained:
# [1] = system: primary human fibroblasts; test: growth and survival effect of recombinant ELA on primary fibroblasts; format: cell-based
# Description: (§1) Primary human fibroblasts, SW1353 chondrosarcoma (ATCC) and NTERA2 hECs (a gift from Barbara Knowles and Davor Solter) were grown in Dulbecco's modified Eagle's medium (DMEM) with 10% FBS (Hyclone), 2 mM GlutaMAX™ (Invitrogen) and 1 mM sodium pyruvate. For xCELLigence real time growth assays, 4000 cells were plated per well of an E-plate (ACEA Biosciences) with media changes every 48 hours. […] Cell cycle studies were performed with Click-iT EDU staining kit (Invitrogen) and by performing a double thymidine block (2.5 mM thymidine; 16 hour block, 8 hour release, 16 hour block) followed by DAPI staining for DNA content at the indicated times following release.
# CXCR4 [2] = molecular target: T1, CXCR4 (Homo sapiens, UniProt P61073); test: ELA receptor binding assay (ELA-AP) on 293T cells transfected with receptor; design: 293T cells transfected with plasmids encoding full-length ORFs of putative receptors; expressed in transfected cells; host or cells: 293T; details: ELA-AP conditioned medium, 3 hours
# T1 sequence (P61073 whole entry): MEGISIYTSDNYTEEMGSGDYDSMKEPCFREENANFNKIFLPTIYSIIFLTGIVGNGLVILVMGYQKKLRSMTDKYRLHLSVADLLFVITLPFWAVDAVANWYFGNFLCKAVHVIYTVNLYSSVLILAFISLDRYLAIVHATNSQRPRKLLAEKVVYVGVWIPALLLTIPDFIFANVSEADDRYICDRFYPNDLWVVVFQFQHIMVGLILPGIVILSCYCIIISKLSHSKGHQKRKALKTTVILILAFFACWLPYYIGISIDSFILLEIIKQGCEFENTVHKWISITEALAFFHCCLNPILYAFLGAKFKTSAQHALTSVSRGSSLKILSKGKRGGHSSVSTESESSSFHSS
# Description: Secreted ELA-Alkaline Phosphatase (ELA-AP) was produced by transfecting a construct encoding ELA-AP into 293T cells, as described previously (Chng et al., 2013). Conditioned medium from ELA-AP expressing cells was then incubated for 3 hours with 293T cells transfected with plasmids encoding full-length ORFs of putative receptors. Unbound ELA-AP was washed away and cells were lysed with 1% Triton-X/PBS. Lysates were cleared and incubated with an AP substrate BCIP/NBT at 37° C. for 15 minutes. Optical density was read at 495 nm, and the intensity of blue coloration is directly proportional to the affinity of ELA-AP to the over-expressed receptor.
# CXCR4 [3] = molecular target: T1, CXCR4; test: PathHunter β-Arrestin CXCR4 assay, activation; format: cell-based; details: β-Arrestin recruitment
# Description: To detect activation of CXCR4 by ELA or SDF-1, recombinant ELA or SDF-1 were added in increasing concentrations for 90-180 minutes to cells stably expressing CXCR4 coupled to a downstream reporter. β-Arrestin recruitment was measured using the PathHunter® β-Arrestin CXCR4 assay (DiscoveRx). Interaction of CXCR4 with Arrestin was detected by Enzyme Fragment Complementation (EFC) between two complementary domains of β-galactosidase (β-Gal), one fused to CXCR4 and the other fused to β-Arrestin. β-Arrestin recruitment to CXCR4 results in complementation of the two domains to generate β-Gal activity. % Ac ? vity=100%×(mean RLU of test sample−mean RLU of vehicle control)/(mean MAX control ligand−mean RLU of vehicle control). To detect antagonism of SDF-1 by ELA, the assay was run in antagonist mode by measuring the EC50 of ELA in the presence of SDF-1 at EC80 concentration. To detect synergism between ELA and SDF-1, the assay was run in positive allosteric mode by measuring the EC50 of ELA in the presence of SDF-1 at EC20 concentration.
# [4] = heart failure, APELIN experiments repeated with ELABELA; details: in vivo
# Text: Nature 2012 Aug. […] J Clin Invest. 2013 Nov. 1.
# hECs = test: growth and survival effect of recombinant ELA on hECs; format: cell-based, human
# Description: as §1
# PRAS40 = test: SILAC-based phosphoproteomic analysis of hESCs pulsed for 10 minutes; format: cell-based, human; details: 10 minute pulse, 5 uM
# [5] = system: human chondrosarcoma cell line; test: growth and survival effect of recombinant ELA on chondrosarcoma cells; format: cell-based
# Description: as §1
# hESCs [6] = test: qPCR of mesendodermal markers in hESCs; format: cell-based, human
# Description: After the indicated time periods, embryoid bodies were harvested and RNA extracted using RNeasy kit ([…]). qPCR reactions were carried out using either Universal FastSlart SYBR Green Mastermix (Roche) or using the Universal Probe Library system (Roche) in tandem with Taqman Fast Mastermix (Invitrogen). Primer sequences can be found in Table E1.
# [7] = hypertension, APELIN experiments repeated with ELABELA; details: in vivo
# Text: Regulatory Peptides. 2001; 99(2-3):87-92. • Cheng X, Cheng X S, Pang C C. […] European Journal of Pharmacology. […] Journal of the American College of Cardiology. 2008; 52(11):908-913.
# hESCs [8] = test: insulin replacement assay in hESCs; format: cell-based, human
# Description: For insulin replacement assays, SHEF4 or HESC3 hESCs were cultured in TSER-E5 (Stem Cell Technologies) supplemented with TGF-β (5 ng/ml, R&D Systems) and bFGF (100 ng/ml, Invitrogen) with and without INSULIN (10 ug/ml, SIGMA).
# PI3K/AKT pathway = test: signaling pathway assay in starved hESCs pulsed with peptide (SDS-PAGE, western); format: cell-based, human
# Description: To assay the signaling pathway activated by ELA, hESCs were dissociated and plated in mTSER1 for 48 hours, followed by a 2-hour starvation in DMEM/F12. Synthetically produced ELA or ELA^RR>GG peptides, dialyzed against PBS to remove any residual synthesis buffers, were added at a final concentration of 5 uM (or as indicate(D) for the indicated period of time. Where applicable, PI3K inhibitors LY294002 (5 uM) and Wortmannin (1 uM) were added 30 minutes before pulsing with ELA peptides. Cells were lysed with PhosphoSafe™ (Millipore) for SDS-PAGE.
# hESCs [9] = test: stress-induced apoptosis of hESCs by ionizing radiation; format: cell-based, human
# [10] = artherosclerosis, APELIN experiments repeated with ELABELA; format: in vivo
# Text: J Clin Invest 2008; 118:3343-54.
# The experiments described in the above publication are repeated, with the replacement of APELIN with ELABELA.
# hESCs [11] = test: stress-induced apoptosis of hESCs by ActinomycinD; format: cell-based, human
# Description: To induce apoptosis, hESCs were treated with the indicated doses of ActinomycinD (Sigma) or ionizing radiation followed by Aqueous One Cell Titer (Promega) or CASPASE GLO3/7 (Promega) assays 12 hours post-treatment.
# [12] = coronary artery disease / myocardial infarction, APELIN experiments repeated with ELABELA; format: in vivo
# Text: Peptides 2013; 46:76-82. • Li L, Zeng H, Chen J X. Apelin-13 increases myocardial progenitor cells and improves repair postmyocardial infarction. Am J Physiol Heart Cire Physiol 2012; 303:H605-18. • Pisarenko O I, Serebryakova L I, Pelogeykina Y A, et al. In vivo reduction of reperfusion injury to the heart with apelin-12 peptide in rats. Bull Exp Biol Med 2011; 152:79-82.
# [13] = 3 hours after 1 Gray of γ irradiation
sequence,measurement,setting,value
QRPVNLTMRRKLRKHNCLQRRCMPLHSRVPFP [ELA],activity of recombinant ELA on primary human fibroblasts,[1],exerted activity only on hESCs cultures and no other differentiated cell types
same,cell surface binding to CXCR4,CXCR4 [2],confers cell surface binding to ELA
same,activation of CXCR4,CXCR4 [3],cannot activate CXCR4
same,protection against heart failure,[4],able to provide protection against heart failure
same,activity of recombinant ELA on hECs,hECs,exerted activity only on hESCs cultures and no other differentiated cell types
same,phosphopeptide LNpTSDFQK derived from PRAS40,PRAS40,Among the top phosphopeptides activated by ELA
same,activity of recombinant ELA on human chondrosarcoma cell line,[5],exerted activity only on hESCs cultures and no other differentiated cell types
same,"expression of mesendodermal genes GATA6, GATA4, FOXA2, EOMES and BRA",hESCs [6],consistently upregulated
same,blood pressure,[7],causes a reduction in blood pressure
same,growth rescue of shELA hESCs under INSULIN deprivation,hESCs [8],intermediate growth rescue
same,activation of ERK and SMAD2,PI3K/AKT pathway,little to no activation of ERK and SMAD2
same,activation of PI3K/AKT and mTORC1 pathway (p70S6K phosphorylation),PI3K/AKT pathway,activates the PI3K/AKT pathway and subsequently the mTORC1 pathway
same,phosphorylation of AKT at serine 473 and PRAS40 at threonine 246,PI3K/AKT pathway; 5 uM peptide after 2-hour starvation,sufficient to trigger the immediated phosphorylation of AKT at serine 473
same,rescue of the irradiation sensitivity of shELA hESCs,hESCs [9],rescued this phenotype
same,activated CASPASE 3 after irradiation,hESCs [9]; [13],almost undetectable
same,γH2AX foci after irradiation,hESCs [9]; [13],comparable numbers of γH2AX foci
same,protection against artherosclerosis,[10]; Ang II,can protect against artherosclerosis
same,abdominal aortic aneurysm formation and rupture,[10]; in vivo,inhibit abdominal aortic aneurysm formation and rupture
same,activated CASPASE3/7 and CASPASE 9 after ActinomycinD,hESCs [11],entirely suppressed
same,resistance or sensitivity to ActinomycinD,hESCs [11]; nanomolar concentrations of ActinomycinD,conferred significant resistance to control hESCs and completely rescued shELA hESCs
same,angiogenesis and cardiac repair postmyocardial infarction,[12]; in vivo,promote angiogenesis and ameliorate cardiac repair postmyocardial infarction
same,myocardial infarction size and damage to cardiomyocytes,[12]; injection,limit the myocardial infarction size and reduce damage to cardiomyocytes
